Assay results: paper PMC9157009, “Protein proximity networks and functional evaluation of the casein kinase 1 gamma family reveal unique roles for CK1γ3 in WNT signaling” (The Journal of Biological Chemistry, 2022)
Where “and” joins values, the source holds several entries; their conditions need not be identical. Equal values may be shown once.

Experiments:
IRAK1 = target: T1, IRAK1 (Homo sapiens, UniProt P51617); assay: scanMAX binding assay, IRAK1; conditions: Percent of Control; legend and method: 1 μM; read-out: IRAK1 PoC @ 1 µM
T1 construct: purchased Eurofins DiscoverX Corporation
T1 sequence (P51617 whole entry): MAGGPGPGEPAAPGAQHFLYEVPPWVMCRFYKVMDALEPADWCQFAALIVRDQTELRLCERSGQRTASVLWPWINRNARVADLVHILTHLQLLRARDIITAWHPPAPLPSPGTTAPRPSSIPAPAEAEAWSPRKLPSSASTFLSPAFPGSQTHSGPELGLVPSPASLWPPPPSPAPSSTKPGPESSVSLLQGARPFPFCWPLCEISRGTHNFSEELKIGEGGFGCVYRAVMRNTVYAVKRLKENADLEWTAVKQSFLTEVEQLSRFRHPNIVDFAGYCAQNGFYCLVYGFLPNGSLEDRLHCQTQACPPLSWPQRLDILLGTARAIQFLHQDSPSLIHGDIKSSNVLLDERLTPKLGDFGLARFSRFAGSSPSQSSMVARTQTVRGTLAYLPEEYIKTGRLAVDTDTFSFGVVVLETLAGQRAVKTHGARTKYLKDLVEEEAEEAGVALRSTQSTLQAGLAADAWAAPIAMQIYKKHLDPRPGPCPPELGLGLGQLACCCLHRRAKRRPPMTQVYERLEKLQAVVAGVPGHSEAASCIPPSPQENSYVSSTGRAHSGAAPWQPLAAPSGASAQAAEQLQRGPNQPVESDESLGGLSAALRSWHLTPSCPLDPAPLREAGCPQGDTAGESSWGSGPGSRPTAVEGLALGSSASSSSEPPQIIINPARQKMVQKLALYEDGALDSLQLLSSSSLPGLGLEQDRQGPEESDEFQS
Source text: (§1) As described previously, this commercial assay platform screens against 403 WT human kinases in binding assays and provides PoC values ([73]).

CIT = target: T2, CIT (Homo sapiens, UniProt O14578); assay: scanMAX binding assay, CIT; conditions: Percent of Control; legend and method: 1 μM; read-out: CIT PoC @ 1 µM
T2 construct: purchased Eurofins DiscoverX Corporation
Source text: as §1

CK1γ2 (NLuc-CK1γ2) = target: T3, CK1γ2 (NLuc-CK1γ2) (Homo sapiens, UniProt P78368); assay: NanoBRET cellular target engagement assay, NLuc-CK1γ2 in HEK293T cells; type: cell-based; conditions: live HEK293T cells, 0.5 μM tracer K-10; read-out: NL-CK1γ2 NanoBRET IC50
T3 construct: host or cells: HEK293T
T3 sequence (P78368 whole entry): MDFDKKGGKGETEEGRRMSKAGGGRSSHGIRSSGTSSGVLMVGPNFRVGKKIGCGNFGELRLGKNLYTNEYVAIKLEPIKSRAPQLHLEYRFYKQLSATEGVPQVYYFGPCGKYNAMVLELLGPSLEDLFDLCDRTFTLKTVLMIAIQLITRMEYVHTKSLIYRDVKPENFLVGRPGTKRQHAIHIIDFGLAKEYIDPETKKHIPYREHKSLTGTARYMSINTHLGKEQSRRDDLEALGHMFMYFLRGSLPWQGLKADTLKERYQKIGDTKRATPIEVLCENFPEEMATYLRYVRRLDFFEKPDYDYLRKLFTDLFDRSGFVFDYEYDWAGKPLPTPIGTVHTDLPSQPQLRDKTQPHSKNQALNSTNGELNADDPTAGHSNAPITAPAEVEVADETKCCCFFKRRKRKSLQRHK
Description: (§2) HEK293T cells (hypotriploid, fetal) were purchased from ATCC. These cells were grown in Dulbecco’s modified Eagle’s medium (Gibco) supplemented with 10% (v/v) fetal bovine serum (Corning). They were incubated in 5% CO2 at 37 °C and passaged every 72 h with trypsin and not allowed to reach confluency. Constructs for NanoBRET measurements of CK1γ2 (NLuc-CK1γ2) and GSK3β (NLuc-GSK3β) were kindly provided by Promega. NanoBRET assays were carried out as described previously ([74]). Preferred NLuc orientations, both N-terminal in this case, are indicated in parentheses after each construct. Assays were carried out in dose–response as described by the manufacturer using 0.5 μM of tracer K-10 for CK1γ2 and 0.063 μM of tracer K-8 for GSK3β. Two biological replicates were executed with two technical replicates to produce the graphs with error bars shown in Figures 6E, 7E, 8, A and B. Tracer titration curves for these kinases that motivated our tracer selection and working concentration can be found on the Promega website.

ADCK3 = target: T4, ADCK3 (Homo sapiens, UniProt Q8NI60); assay: scanMAX binding assay, ADCK3; conditions: Percent of Control; legend and method: 1 μM; read-out: ADCK3 PoC @ 1 µM
T4 construct: purchased Eurofins DiscoverX Corporation (scanMAX)
T4 sequence (Q8NI60 163-647): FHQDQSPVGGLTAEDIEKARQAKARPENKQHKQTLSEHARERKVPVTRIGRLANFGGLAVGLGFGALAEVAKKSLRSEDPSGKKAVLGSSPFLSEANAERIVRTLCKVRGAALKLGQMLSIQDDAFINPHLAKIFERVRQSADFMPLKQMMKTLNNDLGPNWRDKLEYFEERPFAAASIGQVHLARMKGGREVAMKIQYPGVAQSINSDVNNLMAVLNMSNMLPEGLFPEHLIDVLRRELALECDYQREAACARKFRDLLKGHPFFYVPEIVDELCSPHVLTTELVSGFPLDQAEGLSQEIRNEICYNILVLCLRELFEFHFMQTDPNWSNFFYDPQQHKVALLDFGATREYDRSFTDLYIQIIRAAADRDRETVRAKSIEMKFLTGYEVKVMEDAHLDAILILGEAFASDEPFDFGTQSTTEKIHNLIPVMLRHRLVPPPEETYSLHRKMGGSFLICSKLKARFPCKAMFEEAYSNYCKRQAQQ
Source text: as §1

GSK3β (NLuc-GSK3β) = target: T5, GSK3β (NLuc-GSK3β) (Homo sapiens, UniProt P49841); assay: NanoBRET cellular target engagement assay, NLuc-GSK3β in HEK293T cells; type: cell-based; conditions: live HEK293T cells, 0.063 μM tracer K-8; read-out: GSK3β NanoBRET assay, inactive up to
T5 construct: host or cells: HEK293T
T5 sequence (P49841 whole entry): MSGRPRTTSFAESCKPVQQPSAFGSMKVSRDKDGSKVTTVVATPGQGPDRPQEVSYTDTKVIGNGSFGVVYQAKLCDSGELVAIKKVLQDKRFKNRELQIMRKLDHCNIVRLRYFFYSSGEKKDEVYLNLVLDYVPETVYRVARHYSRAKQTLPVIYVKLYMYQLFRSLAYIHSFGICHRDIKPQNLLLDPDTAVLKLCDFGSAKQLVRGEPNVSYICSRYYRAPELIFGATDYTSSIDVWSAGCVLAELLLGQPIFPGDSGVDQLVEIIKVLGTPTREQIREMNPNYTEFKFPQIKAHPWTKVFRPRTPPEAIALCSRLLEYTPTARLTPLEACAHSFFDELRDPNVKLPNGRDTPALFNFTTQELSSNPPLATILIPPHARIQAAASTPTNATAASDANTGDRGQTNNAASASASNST
Description: as §2

CK1γ2 [1] = target: T6, CK1γ2 (Homo sapiens, UniProt P78368); assay: scanMAX binding assay, CK1γ2; conditions: Percent of Control; legend and method: 1 μM; read-out: CK1γ2 PoC @ 1 µM
T6 construct: purchased Eurofins
T6 sequence (P78368 whole entry): as the sequence (P78368 whole entry) above
Source text: as §1

CSNK1E = target: T7, CSNK1E (Homo sapiens, UniProt P49674); assay: scanMAX binding assay, CSNK1E; conditions: Percent of Control; legend and method: 1 μM; read-out: CSNK1E PoC @ 1 µM
T7 construct: purchased Eurofins DiscoverX Corporation
T7 sequence (P49674 whole entry): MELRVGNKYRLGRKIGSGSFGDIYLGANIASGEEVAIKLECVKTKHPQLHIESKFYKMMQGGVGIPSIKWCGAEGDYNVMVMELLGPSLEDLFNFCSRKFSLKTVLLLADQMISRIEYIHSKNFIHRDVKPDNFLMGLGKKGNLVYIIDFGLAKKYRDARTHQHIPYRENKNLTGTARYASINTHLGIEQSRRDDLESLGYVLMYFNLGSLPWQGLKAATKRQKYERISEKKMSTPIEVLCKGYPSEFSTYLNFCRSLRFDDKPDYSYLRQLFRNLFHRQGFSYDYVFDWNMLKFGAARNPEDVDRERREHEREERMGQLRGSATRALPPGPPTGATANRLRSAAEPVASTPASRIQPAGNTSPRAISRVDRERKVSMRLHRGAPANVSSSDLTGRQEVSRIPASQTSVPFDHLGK
Source text: as §1

GSK3α = target: T8, GSK3α (Homo sapiens, UniProt P49840); assay: scanMAX binding assay, GSK3α; conditions: Percent of Control; legend and method: 1 μM
T8 construct: purchased Eurofins DiscoverX Corporation
T8 sequence (P49840 whole entry): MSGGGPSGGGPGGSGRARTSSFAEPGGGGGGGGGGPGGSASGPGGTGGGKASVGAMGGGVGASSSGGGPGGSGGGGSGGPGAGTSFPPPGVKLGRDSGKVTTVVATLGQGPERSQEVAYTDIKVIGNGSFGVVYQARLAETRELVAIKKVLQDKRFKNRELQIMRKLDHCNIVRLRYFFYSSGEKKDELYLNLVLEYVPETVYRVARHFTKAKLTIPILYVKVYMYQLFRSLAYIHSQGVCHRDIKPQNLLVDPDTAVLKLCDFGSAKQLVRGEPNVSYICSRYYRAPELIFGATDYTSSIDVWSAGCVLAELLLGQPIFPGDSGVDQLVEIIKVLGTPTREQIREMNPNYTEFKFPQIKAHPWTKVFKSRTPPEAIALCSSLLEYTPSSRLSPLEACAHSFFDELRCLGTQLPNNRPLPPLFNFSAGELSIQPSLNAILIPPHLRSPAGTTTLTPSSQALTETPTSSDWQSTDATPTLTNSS
Source text: as §1

CK1γ3 = target: T9, CK1γ3 (Homo sapiens, UniProt Q9Y6M4); assay: Eurofins kinase enzymatic radiometric assay, CK1γ3; type: biochemical; conditions: Km = ATP, 9-pt curve in duplicate
T9 construct: purchased Eurofins
T9 sequence (Q9Y6M4 whole entry): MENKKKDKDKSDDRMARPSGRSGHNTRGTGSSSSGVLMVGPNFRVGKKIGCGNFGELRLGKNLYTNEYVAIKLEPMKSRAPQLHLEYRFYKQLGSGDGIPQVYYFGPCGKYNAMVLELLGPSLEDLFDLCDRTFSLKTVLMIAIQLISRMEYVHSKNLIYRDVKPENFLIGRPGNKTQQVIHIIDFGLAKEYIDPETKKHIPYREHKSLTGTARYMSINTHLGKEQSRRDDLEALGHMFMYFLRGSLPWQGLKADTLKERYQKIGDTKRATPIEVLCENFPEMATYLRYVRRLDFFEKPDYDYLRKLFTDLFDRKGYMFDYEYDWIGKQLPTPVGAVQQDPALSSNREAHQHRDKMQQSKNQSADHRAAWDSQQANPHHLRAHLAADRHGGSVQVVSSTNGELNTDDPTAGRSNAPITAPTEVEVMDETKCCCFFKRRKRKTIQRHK
Source text: (§3) Details related to the substrate used, protein constructs, controls, and assay protocol for each kinase assay are included on the Eurofins website: https://www.eurofinsdiscoveryservices.com/.

β-catenin = assay: W. blot of β-catenin stabilization after WNT3A in RKO cells; type: cell-based, human; conditions: RKO cells pretreated 1 h, WNT3A 30 or 60 min, compared with dimethyl sulfoxide control
Description: Standard W. blot techniques were utilized and performed as previously described ([15], [43]). Briefly, cells were lysed in RIPA lysis buffer, flash frozen on dry ice, and then cleared at high speed for 10 min at maximum speed. Protein concentration was determined by a bicinchoninic acid assay following kit specifications. Samples were balanced, and NuPAGE 4× SDS loading buffer (Thermo Fisher Scientific; catalog no.: NP0007) containing DTT was added to each sample and heated for 10 min at 70 °C. Samples were run on a NuPAGE 4 to 12% Bis–Tris Protein Gel (Thermo Fisher Scientific; catalog no.: NP0321) and then transferred to a nitrocellulose membrane. The membrane was then blocked and incubated overnight with primary antibody at 4 °C with rotation, washed with Tris-buffered saline with Tween-20, incubated with secondary antibody, washed with Tris-buffered saline with Tween-20, and imaged. Images were taken using a LiCOR Odyssey CLx imager and quantified with LiCOR software (LiCOR Biosciences). All antibodies were used at a concentration of 1:1000, with the exception of loading controls, which were used at 1:10,000. […]

CK1γ2 [2] = target: T6, CK1γ2; assay: Eurofins kinase enzymatic radiometric assay, CK1γ2; type: biochemical; conditions: Km = ATP, 9-pt curve in duplicate
Source text: as §3

DYRK1B = target: T10, DYRK1B (Homo sapiens, UniProt Q9Y463); assay: scanMAX binding assay, DYRK1B; conditions: Percent of Control; legend and method: 1 μM; read-out: DYRK1B PoC @ 1 µM
T10 construct: purchased Eurofins DiscoverX Corporation
T10 sequence (Q9Y463 whole entry): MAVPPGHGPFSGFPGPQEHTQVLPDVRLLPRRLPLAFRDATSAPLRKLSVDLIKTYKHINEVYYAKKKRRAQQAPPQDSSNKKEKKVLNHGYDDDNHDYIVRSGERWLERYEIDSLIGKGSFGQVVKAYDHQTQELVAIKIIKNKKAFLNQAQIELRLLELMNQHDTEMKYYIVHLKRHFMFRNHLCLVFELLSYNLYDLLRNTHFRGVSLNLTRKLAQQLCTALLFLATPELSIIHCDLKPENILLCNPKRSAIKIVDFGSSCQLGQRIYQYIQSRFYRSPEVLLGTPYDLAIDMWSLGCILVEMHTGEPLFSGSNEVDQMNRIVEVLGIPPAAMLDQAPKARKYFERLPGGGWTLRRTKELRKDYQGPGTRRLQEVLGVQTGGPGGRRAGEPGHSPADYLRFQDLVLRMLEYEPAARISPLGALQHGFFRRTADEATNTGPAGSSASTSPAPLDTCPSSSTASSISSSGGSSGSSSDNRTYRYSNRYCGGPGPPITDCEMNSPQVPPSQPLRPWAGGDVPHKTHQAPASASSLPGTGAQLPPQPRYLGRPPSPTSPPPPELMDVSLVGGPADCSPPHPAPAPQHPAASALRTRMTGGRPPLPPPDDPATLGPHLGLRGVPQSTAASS
Source text: as §1

COc1cnc(COc2ccc(F)c(F)c2)cc1-c1cc2c([nH]1)CCNC2=O [FP1-24-2, 2-(2-((3,4-difluorophenoxy)methyl)-5-methoxypyridin-4-yl)-1,5,6,7-tetrahydro-4H-pyrrolo[3,2-c]pyridin-4-one]
remaining binding at 1 µM (IRAK1): 1.1%
remaining binding at 1 µM (CIT): 0.6%
IC50 (CK1γ2 (NLuc-CK1γ2)): 0.0107 µM
remaining binding at 1 µM (ADCK3): 5.4%
IC50 (GSK3β (NLuc-GSK3β)): > 10 µM
remaining binding at 1 µM (CK1γ2 [1]): 4.3%
remaining binding at 1 µM (CSNK1E): 0.3%
GSK3α PoC @ 1 µM (GSK3α): did not inhibit
IC50 (CK1γ3): < 0.015 µM and 0.014 µM
β-catenin stabilization (β-catenin): diminished
IC50 (CK1γ2 [2]): < 0.015 µM and 0.00222 µM
remaining binding at 1 µM (DYRK1B): 7.1%
